According to patent publication US7553866B2, “Thiolactones” (Eisai Corporation of North America, priority 2003, dated 2009):
Entries after “also recorded” stand apart in the source; their conditions may differ. Marks after values point to notes of the source that are not given here. Peptide text beside a SMILES is read from it.

Legend:
C57/BL mice [1] = assay: animal or person; format: in vivo; details: for ED50: Mus musculus, sc
Description: (§1) Male C57/BL mice (IMP, Lodz, Poland), 22-24 g of body weight were group-housed in the standard laboratory cages and kept in a temperature-controlled colony room (21±2° C.) with a 12-hour light/dark cycle (light on: 07:00, off: 19:00). Commercial food and tap water were available ad libitum. Each experimental group consisted of 7-28 mice per treatment. All mice were used only once.
(§2) The intensity of the heat stimulus was adjusted so that the baseline tail-flick latency was ˜3 seconds. […] Each response assessment consisted of two separate measurements taken at different portions of the tail (spaced by 1.5-2 cm) and separated by 15 seconds. The mean of these responses was used for subsequent comparisons.

C57/BL mice [2] = assay: Acute effects in the tail-flick test (Experiment 2); format: in vivo
Description: as §1, §2
The N is given in brackets. Presented in FIG. 5 are mean±S.E.M. Area Under Curve (AUC) values calculated on the same data.

NAALADase = details: NAAG as substrate of NAALADase; cited from earlier work
[3] = system: Brown Norway rats (Rattus norvegicus); assay: Experimental rat glaucoma (unilateral IOP elevation), optic nerve fiber counting; format: in vivo; details: 10 mg/kg i.p. daily; for Fiber Number: glaucoma eye optic nerve; for Percent Difference (fiber number, glaucoma vs normal eye): positive value = fewer fibers in glaucoma eye
Description: (§3) All experiments complied with the Association for Research in Vision and Ophthalmology Statement for the Use of Animals in Ophthalmic and Vision Research. 82 male Brown Norway rats (Rattus norvegicus), each weighing approximately 250 gm, were treated using procedures approved by the Animal Care Committee of the Johns Hopkins University School of Medicine. The rats were housed with a 12 hour light/12 hour dark cycle and fed ad libitum.
Unilateral elevation of intraocular pressure (“IOP”) was produced in 56 rats by microinjection of hypertonic saline into episcleral veins, following procedures described in Morrison, J. et al., IOVS (March 1998) 39:526-531. Beginning on the day of IOP elevation, the rats were treated daily with intraperitoneal injections of either a vehicle (23 rats with 50 mM HEPES-buffered saline) or a NAALADase inhibitor (11 rats with 10 mg/kg of Compound A and 22 rats with 10 mg/kg of Compound B). 11 saline treated rats, 11 Compound A treated rats and 11 Compound B treated rats were sacrificed at 8 weeks, and the remaining rats at 12 weeks, after initial IOP elevation.
(§4) The rats were sacrificed by exsanguination under deep pentobarbital anesthesia. They were perfused through the heart with 2% paraformaldehyde/2% glutaraldehyde in 0.1 M phosphate buffer, pH 7.2, and the eyes with attached optic nerves were removed. Cross-sections of the optic nerves from both experimental (glaucoma or transection) and control eyes was removed 1.5 mm posterior to the globe, 1 mm in thickness, and post-fixed in 2% osmium tetroxide in buffer. These were processed into epoxy resin, sectioned at 1 micron and stained with toluidine blue.
The area of each optic nerve cross-section was measured by outlining its outer border at 10× magnification on an image analysis system (Universal Imaging Corp., Westchester, Pa.) with Synsys digital camera and Metamorph software. Three area measurements were taken and the mean value was determined. To measure the density and fiber diameter distributions, images were captured with a 100× phase contrast objective from 10 different areas of each nerve. These were edited to eliminate non-neural objects and the size of each axon internal to the myelin sheath (its minimum diameter) and the density of axons/square mm were calculated for each image and nerve. The mean density was multiplied by total nerve area to yield fiber number for each nerve. The total fiber number in glaucoma or transection nerves was compared to the normal, fellow eye of each rat to yield a percent loss value. The number of axons counted among the 10 images was approximately 20% of the 80-90,000 axons in normal rat nerves. The person measuring the number of axons was masked to the protocol conducted on the nerves. […]

[4] = system: Brown Norway rats (Rattus norvegicus); assay: Optic nerve transection in rats, optic nerve fiber counting; format: in vivo; details: for Fiber Number / Percent Difference (fiber number, transected vs normal eye): 10 mg/kg i.p. daily
Description: as §3
The optic nerve was transected unilaterally in 26 rats under intraperitoneal pentobarbital anesthesia. The conjunctiva was opened with scissors and the optic nerve was exposed by traction on extraocular muscles. The transection was performed with microscissors 5 mm posterior to the globe, with specific attention to avoidance of injury to major ocular blood vessels. Immediately after transection, the retina was examined ophthalmoscopically to assure that the retinal arterial blood supply was not disrupted. The conjunctiva was closed with absorbable suture and the eye dressed with antibiotic ointment. Beginning on the day of transection, the rats were treated daily with intraperitoneal injections of either a vehicle (9 rats with 50 mM HEPES-buffered saline) or a NAALADase inhibitor (8 rats with 10 mg/kg of Compound A and 9 rats with 10 mg/kg of Compound B). 5 saline treated rats, 3 Compound A treated rats and 4 Compound B treated rats were sacrificed at 2 weeks, and the remaining rats at 4 weeks, after transection.
as §4
The area of each optic nerve cross-section was measured by outlining its outer border at 10× magnification on an image analysis system (Universal Imaging Corp., Westchester, Pa.) with Synsys digital camera and Metamorph software. Three area measurements were taken and the mean value was determined. To measure the density and fiber diameter distributions, images were captured with a 100× phase contrast objective from 10 different areas of each nerve. These were edited to eliminate non-neural objects and the size of each axon internal to the myelin sheath (its minimum diameter) and the density of axons/square mm were calculated for each image and nerve. The mean density was multiplied by total nerve area to yield fiber number for each nerve. The total fiber number in glaucoma or transection nerves was compared to the normal, fellow eye of each rat to yield a percent loss value. The number of axons counted among the 10 images was approximately 20% of the 80-90,000 axons in normal rat nerves. The person measuring the number of axons was masked to the protocol conducted on the nerves.
Percent Difference=mean percent difference in fiber number between glaucoma and normal eye in each rat (positive value indicates fewer fibers in the glaucoma eye).

BB/W rats = assay: Retinal disorder (diabetic retinopathy) in BB/W rats: BM thickness and E/P ratio after 6 months of daily treatment; format: in vivo, rat; details: for BM THICKNESS (nm) ± SD: retinal capillaries
Description: Four groups of rats received daily insulin injections to maintain their glucose levels at about 350 mg/dl. Starting at the onset of hyperglycemia, NAALADase inhibitor 2-(3-sulfanylpropyl)-pentanedioic acid (Compound B) was administered daily for 6 months to one group of BB/W rats at a dose of 10 mg/kg and to a second group of BB/W rats at a dose of 30 mg/kg. A third group of BB/W rats and a fourth group of non-diabetic rats received daily vehicle treatment (50 mM Hepes buffered saline).
After 6 months of treatment with Compound B or vehicle treatment, the rats were sacrificed and their eyes were removed. From each rat, one eye was processed for elastase digest while the other eye was processed for transmission electron microscopy (TEM) and basement membrane (BM) thickness.
Retinal digests were prepared using elastase on retinas as described in Layer, N., Invest Ophthalmol Vis Sci (1993) 34:2097. Eyes were removed from recently killed BB/W rats (n=30) and age-matched transgenic controls (n=12). The retinas (n=12) were fixed at room temperature by immersing the whole eye (slit at limbus) in 4% (w/v) paraformaldehyde in 50 mmol/L Na—K phosphate buffer with 8% sucrose. The fixed retinas were rinsed in deionized water and were incubated for 3 minutes in a 37° C. agitating water bath in 40 units/mL elastase in Na—K phosphate buffer with 150 mmol/L NaCl and 5 mmol/L ethylenediamine tetraacetic acid (EDTA), pH 6.5. The tissues were washed overnight in 100 mmol/L Tris-HCL (pH 8.5) and then transferred to deionized water for removal of the loosened vitreous and digested neural elements by gentle agitation using the sides of closed forceps and the sides and ends of very fine brushes. After all loose tissues were removed, the retinas were incubated once more in fresh enzyme for 3 minutes and then subjected to a second overnight wash at room temperature in Tns-HCl buffer. On the third day, the retinas were again transferred to deionized water for additional removal of digested neural elements. The vascular network that was completely free of nonvascular elements was mounted flat by flotation in Ca^2+ and Mg^2+ free Dulbecco's Phosphate-Buffered Saline (PBS) on siliconized slides (#S1308, Oncor, Gaithersburg, Md.). After air drying in a dust free environment, the mounts of the retinal microvasculature were stained using periodic acid Schiff reaction and hematoxylin counterstaining, as described in Luna, L., ed. Manual of Histologic Staining Methods of the Armed Forces Institute of Pathology (1968) McGraw-Hill, New York, N.Y. The preparations were then examined by light microscopy and photographed.
The stained and intact retinal whole mounts were coded and counted, as described in Cuthbertson, R., Invest Ophthalmol Vis Sci. (1986) 27:1659-1664).
Ten fields at ×100 magnification were counted for endothelial and pericyte cells using previously described morphologic criteria (see Kuwabara, T., Arch Ophthalmol. (1960) 64:904-911). In every sample, at least 200 cells were counted from the mid zone of the retina. Mean values for endothelial cell/pericyte (E/P) ratios were initially calculated in 3 retinas from each of the 4 groups of rats.
Each eye was fixed in 4% glutaraldehyde and dissected free of sclera and choroids, then trimmed and postfixed in 1% osmium tetroxide. After dehydration and embedding, thin sections were stained with uranyl acetate and lead citrate. Initially, BM thickness of retinal capillaries from 3 non-diabetic rats receiving vehicle, 3 diabetic animals receiving 10 mg/kg Compound B, and 3 diabetic rats receiving 30 mg/kg Compound B were compared with 3 diabetic rats receiving a vehicle. At least 10 capillaries per eye from the inner nuclear and plexiform layers were photographed at a magnification of 10,000×. Exact magnification was determined for each set of negatives with a 28,800 line/inch calibration grid. Negatives were enlarged 3×. […]

[5] = 2 weeks survival after transection
[6] = 4 weeks survival after transection
[7] = diabetic BB/W rats, 10 mg/kg daily for 6 months, 10 mg/kg
[8] = diabetic BB/W rats, 10 mg/kg daily for 6 months, listed as NAALADASE INHIBITOR, 10 mg/kg
[9] = diabetic BB/W rats, 30 mg/kg daily for 6 months, 30 mg/kg
[10] = diabetic BB/W rats, 30 mg/kg daily for 6 months, listed as NAAALADASE INHIBITOR, 30 mg/kg
[11] = high dose 30 mg/kg, vs diabetic vehicle
[12] = low dose 10 mg/kg, vs diabetic vehicle

## O=C(O)CCC(CP(=O)(O)O)C(=O)O (stereo not drawn) [Compound 2-PMPA, 2-(phosphonomethyl)pentanedioic acid]
C57/BL mice [1]; 50 or 100 mg/kg of 2-PMPA prior to each dose of morphine
  effect on development of morphine tolerance: attenuated the development of morphine tolerance
C57/BL mice [2]; 100 mg/kg 2-PMPA i.p. 30 min before 1.5 or 3 mg/kg morphine s.c.
  effect on antinociceptive effects of morphine: did not affect antinociceptive effects; also recorded: did not differ
C57/BL mice [2]; 100 mg/kg of 2-PMPA i.p. + placebo
  tail-flick responses (AUC) compared to placebo+placebo treatment: did not affect tail-flick responses; also recorded: did not differ from placebo+placebo treatment

## CC(=O)N[C@@H](CC(=O)O)C(=O)N[C@@H](CCC(=O)O)C(=O)O [NAAG, N-acetyl-aspartyl-glutamate] (Ac-Asp-Glu-OH)
NAALADase
  Km: 0.54 µM

## CC12CC3CC(C)(C1)CC(N)(C3)C2 [Memantine, memantine]
C57/BL mice [1]; mouse, in vivo
  effect on development of morphine tolerance: attenuated the development of morphine tolerance; also recorded: produced an inhibition of morphine tolerance

## O=C(O)CCC(CCCS)C(=O)O (stereo not drawn) [Compound B, 2-(3-sulfanylpropyl)pentanedioic acid]
[3]; 8 week group
  Fiber Number: 80785 ± 2121**
  Percent Difference (fiber number, glaucoma vs normal eye): −0.82 ± 2.97%
[3]; 12 week group
  Fiber Number: 90504 ± 1718
  Percent Difference (fiber number, glaucoma vs normal eye): −3.21 ± 2.86%
[4]; 2 weeks after transection
  remaining axons relative to saline-treated rats: twice
[4]; [5]
  Fiber Number: 19,550 ± 11,383
  Percent Difference (fiber number, transected vs normal eye): 75.3 ± 14.8%
[4]; [6]
  Fiber Number: 5,162 ± 5,017
  Percent Difference (fiber number, transected vs normal eye): 93.4 ± 6.2%
BB/W rats; [7]
  BM THICKNESS (nm) ± SD: 82.3±4.07 nm
  E/P RATIO (endothelial cell/pericyte): 2.5±0.5
BB/W rats; [8]
  BM THICKNESS (nm) ± SD: 82.3 ± 4.07 nm
  E/P RATIO (endothelial cell/pericyte): 2.5 ± 0.5
BB/W rats; [9]
  BM THICKNESS (nm) ± SD: 71.7±4.07 nm
  E/P RATIO (endothelial cell/pericyte): 2.0±0.9
BB/W rats; [10]
  BM THICKNESS (nm) ± SD: 71.7 ± 4.07 nm
  E/P RATIO (endothelial cell/pericyte): 2.0 ± 0.4
BB/W rats; diabetic BB/W rats, 6 months of treatment
  effect on body weight: no effect
BB/W rats; [11]
  reduction in BM thickness: 29.0%
  reduction of endothelial cell to pericyte ratios: 33.0%
BB/W rats; [12]
  decrease in BM thickness: 18.5%
  reduction of endothelial cell to pericyte ratios: 16.7%

## CN1CC[C@]23c4c5ccc(O)c4O[C@H]2[C@@H](O)C=C[C@H]3[C@H]1C5 [Morphine, morphine]
C57/BL mice [1]; 24 h, read-out: Test #1 ED50 (morphine antinociceptive potency)
  ED50: 1.49 ± 0.26 mg/kg
C57/BL mice [1]; read-out: Test #2 ED50 (morphine antinociceptive potency)
  ED50: 8.85 ± 2.22 mg/kg
C57/BL mice [2]; Mus musculus, sc, read-out: antinociceptive ED50 dose
  ED50: 3 mg/kg
